We go through 68 sequences from the supplement of paper PMC11208160.
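Note: IS621 bridge recombinase in Escherichia coli cells against a fixed T5 target plasmid.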

The data set can be described thus: recombinant UMI read abundance after kanamycin selection (control-corrected) (log10(CPM+1)); higher = more efficient recombination; extreme values may be limits of the assay; sequences stand for … in AGTGCAGAGAAAATCGGCCAGTTTTCTCTGCCTGCAGTCCGCATGCCGTGGGACCCCTTGGGTTCTAACCTGTTGCCTAGATTTATGCAGCGGACTGCCTTTCTCCCAAAGTGATAAACCGG…AGGTTGGTTTCACT; site = the 11-nt donor. The essentials:
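In a pooled Escherichia coli screen for the IS621 bridge recombinase, donor and donor-binding-loop pairs were each placed with a 12-nt UMI on a plasmid bearing a promoterless kanamycin gene. This library was co-electroporated with a target plasmid encoding a fixed target and T7-inducible recombinase, and cells were plated either on IPTG (0.07 mM) plus kanamycin or without selection, in two replicates each. Recombinant UMIs were PCR-amplified across the donor–target junction and sequenced, and counts were converted to CPM, averaged over replicates, scaled by control-derived factors and reported as log10(CPM+1).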
“TCAGAGACATGGACCGGTTTTCCCGGTAATCCGTATTTGCG (site TCAGGGACTCG)”: the “recombinant UMI read abundance (log10)” value was 0.0144.
Turning to “TCAGAGACATGGACCGGTTTTCCCGGTAATCCGTATTTGCG (site TCAGTGACTCG)”, the “recombinant UMI read abundance (log10)” value is 0.0233.
On to “TCAGAGACATGGACCGGTTTTCCCGGTAATCCGTATTTGCG (site TCATAGACTCG)”, for which the “recombinant UMI read abundance (log10)” value turned out to be 0.524.
“TCAGAGACATGGACCGGTTTTCCCGGTAATCCGTATTTGCG (site TCCGAGACTCG)”: the “recombinant UMI read abundance (log10)” value was 0.462.
With “TCAGAGACATGGACCGGTTTTCCCGGTAATCCGTATTTGCG (site TCGGAGACTCG)” the figure was 0.836; with “TCAGAGACATGGACCGGTTTTCCCGGTAATCCGTATTTGCG (site TCTGAGACTCG)”, 0.346; with “TCAGAGACATGGACCGGTTTTCCCGGTAATCCGTATTTGCG (site TGAGAGACTCG)”, 0.498.
For “TCAGAGACATGGACCGGTTTTCCCGGTAATCCGTATTTGCG (site TTAGAGACTCG)”, the “recombinant UMI read abundance (log10)” value came out at 1.56.
As to “TCAGAGGCATGGACCGGTTTTCCCGGTAATCCGTATTTGCG (site TCAGAGACTCG)”, the “recombinant UMI read abundance (log10)” value was found to be 0.431.
Regarding “TCAGAGGCATGGACCGGTTTTCCCGGTAATCCGTATTTGCG (site TCAGAGCCTCG)”, the “recombinant UMI read abundance (log10)” value came out at 0.0967.
“TCAGAGGCATGGACCGGTTTTCCCGGTAATCCGTATTTGCG (site TCAGAGGCTCG)”: the “recombinant UMI read abundance (log10)” value came out at 1.26.
With “TCAGAGGCATGGACCGGTTTTCCCGGTAATCCGTATTTGCG (site TCAGAGTCTCG)”, the “recombinant UMI read abundance (log10)” value was determined as 2.18.
As to “TCAGGTACATGGACCGGTTTTCCCGGTAATCCGTATTTGCA (site TCAGGTACTTG)”, the “recombinant UMI read abundance (log10)” value came out at 2.02.
With “TCAGGTGCATGGACCGGTTTTCCCGGTAATCCGTATTTGAT (site ACAGGTGCTAT)” the figure was 0.
Then “TCAGGTGCATGGACCGGTTTTCCCGGTAATCCGTATTTGAT (site CCAGGTGCTAT)”, with 1.06; and “TCAGGTGCATGGACCGGTTTTCCCGGTAATCCGTATTTGAT (site GCAGGTGCTAT)”, with 0.018.
With “TCAGGTGCATGGACCGGTTTTCCCGGTAATCCGTATTTGAT (site TCAGGTGCTAT)” the figure was 1.74; with “TCAGGTTCATGGACCGGTTTTCCCGGTAATCCGTATTTGGA (site TCAGGTTCTTC)”, 2.16.
With “TCAGTATCATGGACCGGTTTTCCCGGTAATCCGTATTTGCA (site ACAGTATCTTG)”, the “recombinant UMI read abundance (log10)” value was 1.93.
Regarding “TCAGTATCATGGACCGGTTTTCCCGGTAATCCGTATTTGCA (site CCAGTATCTTG)”, the “recombinant UMI read abundance (log10)” value came out at 2.06.
In the case of “TCAGTATCATGGACCGGTTTTCCCGGTAATCCGTATTTGCA (site GCAGTATCTTG)”, the “recombinant UMI read abundance (log10)” value came to 0.463.
With “TCAGTATCATGGACCGGTTTTCCCGGTAATCCGTATTTGCA (site TCAGTATCTTG)” the figure was 2.23; with “TCAGTATCATGGACCGGTTTTCCCGGTAATCCGTATTTGTA (site ACAGTATCTTG)”, 0.377.
On to “TCAGTATCATGGACCGGTTTTCCCGGTAATCCGTATTTGTA (site TCAGTATCTTA)”, for which the “recombinant UMI read abundance (log10)” value is 2.5.
For “TCAGTCACATGGACCGGTTTTCCCGGTAATCCGTATTTGAG (site TCAGTCACTCT)”, the “recombinant UMI read abundance (log10)” value came out at 0.702.
As to “TCAGTGACATGGACCGGTTTTCCCGGTAATCCGTATTTGCG (site TCAGAGACTCG)”, the “recombinant UMI read abundance (log10)” value came out at 0.0602.
On to “TCAGTGACATGGACCGGTTTTCCCGGTAATCCGTATTTGCG (site TCAGCGACTCG)”, for which the “recombinant UMI read abundance (log10)” value came to 0.00331.
With “TCAGTGACATGGACCGGTTTTCCCGGTAATCCGTATTTGCG (site TCAGGGACTCG)” the figure was 0.00386.
Consider “TCAGTGACATGGACCGGTTTTCCCGGTAATCCGTATTTGCG (site TCAGTGACTCG)”, for which the “recombinant UMI read abundance (log10)” value is 1.21.
Regarding “TCATACTCATGGACCGGTTTTCCCGGTAATCCGTATTTGCG (site TCATACTCTAG)”, the “recombinant UMI read abundance (log10)” value worked out at 0.
As to “TCATACTCATGGACCGGTTTTCCCGGTAATCCGTATTTGCG (site TCATACTCTCG)”, the “recombinant UMI read abundance (log10)” value came out at 2.57.
With “TCATACTCATGGACCGGTTTTCCCGGTAATCCGTATTTGCG (site TCATACTCTGG)” the figure was 0.0107; with “TCATACTCATGGACCGGTTTTCCCGGTAATCCGTATTTGCG (site TCATACTCTTG)”, 2.1.
With “TCATAGGCATGGACCGGTTTTCCCGGTAATCCGTATTTGAG (site TCATAGGCTCT)” the figure was 1.46; with “TCATCTTCATGGACCGGTTTTCCCGGTAATCCGTATTTGGT (site TCATCTTCTAC)”, 0.467; with “TCATGACCATGGACCGGTTTTCCCGGTAATCCGTATTTGCC (site TCATGACCTGG)”, 0.
Take “TCATGACCATGGACCGGTTTTCCCGGTAATCCGTATTTGCG (site TCATGACCTCG)”: the “recombinant UMI read abundance (log10)” value was 0.00794.
For the sequence “TCATGAGCATGGACCGGTTTTCCCGGTAATCCGTATTTGGG (site TAATGAGCTCC)”, the “recombinant UMI read abundance (log10)” value was found to be 0.0178.
For “TCATGAGCATGGACCGGTTTTCCCGGTAATCCGTATTTGGG (site TCATGAGCTCC)”, the “recombinant UMI read abundance (log10)” value was found to be 0.0121.
Take “TCATGAGCATGGACCGGTTTTCCCGGTAATCCGTATTTGGG (site TGATGAGCTCC)”: the “recombinant UMI read abundance (log10)” value stood at 0.00797.
As to “TCATGAGCATGGACCGGTTTTCCCGGTAATCCGTATTTGGG (site TTATGAGCTCC)”, the “recombinant UMI read abundance (log10)” value was 0.00944.
With “TCATGTCCATGGACCGGTTTTCCCGGTAATCCGTATTTGTG (site TCATGTCCTCA)” the figure was 0.
Regarding “TCATTCTCATGGACCGGTTTTCCCGGTAATCCGTATTTGCA (site TCATACTCTTG)”, the “recombinant UMI read abundance (log10)” value was 1.25.
In the case of “TCATTCTCATGGACCGGTTTTCCCGGTAATCCGTATTTGCA (site TCATCCTCTTG)”, the “recombinant UMI read abundance (log10)” value turned out to be 0.
“TCATTCTCATGGACCGGTTTTCCCGGTAATCCGTATTTGCA (site TCATGCTCTTG)”: the “recombinant UMI read abundance (log10)” value amounted to 0.00845.
Regarding “TCATTCTCATGGACCGGTTTTCCCGGTAATCCGTATTTGCA (site TCATTCTCTTG)”, the “recombinant UMI read abundance (log10)” value is 1.41.
On to “TCCAAAGCATGGACCGGTTTTCCCGGTAATCCGTATTTGGA (site TCCAAAGCTTC)”, for which the “recombinant UMI read abundance (log10)” value was found to be 0.0225.
Consider “TCCAAGTCATGGACCGGTTTTCCCGGTAATCCGTATTTGCC (site TCCAAATCTGG)”, for which the “recombinant UMI read abundance (log10)” value turned out to be 0.
Turning to “TCCAAGTCATGGACCGGTTTTCCCGGTAATCCGTATTTGCC (site TCCAACTCTGG)”, the “recombinant UMI read abundance (log10)” value came out at 0.
With “TCCAAGTCATGGACCGGTTTTCCCGGTAATCCGTATTTGCC (site TCCAAGTCTGG)” the figure was 0; with “TCCAAGTCATGGACCGGTTTTCCCGGTAATCCGTATTTGCC (site TCCAATTCTGG)”, 0.
With “TCCAATTCATGGACCGGTTTTCCCGGTAATCCGTATTTGAC (site TCCAATTCTGA)” the figure was 0; with “TCCAATTCATGGACCGGTTTTCCCGGTAATCCGTATTTGAC (site TCCAATTCTGC)”, 0; with “TCCAATTCATGGACCGGTTTTCCCGGTAATCCGTATTTGAC (site TCCAATTCTGG)”, 0.
For the sequence “TCCAATTCATGGACCGGTTTTCCCGGTAATCCGTATTTGAC (site TCCAATTCTGT)”, the “recombinant UMI read abundance (log10)” value amounted to 0.
Regarding “TCCAATTCATGGACCGGTTTTCCCGGTAATCCGTATTTGCT (site TCCAATTCTAG)”, the “recombinant UMI read abundance (log10)” value came to 0.
On to “TCCAATTCATGGACCGGTTTTCCCGGTAATCCGTATTTGCT (site TCCAATTCTCG)”, for which the “recombinant UMI read abundance (log10)” value came to 0.
With “TCCAATTCATGGACCGGTTTTCCCGGTAATCCGTATTTGCT (site TCCAATTCTGG)” the figure was 0; with “TCCAATTCATGGACCGGTTTTCCCGGTAATCCGTATTTGCT (site TCCAATTCTTG)”, 0; with “TCCACCGCATGGACCGGTTTTCCCGGTAATCCGTATTTGGG (site TCCACCGCTCA)”, 0.0369.
With “TCCACCGCATGGACCGGTTTTCCCGGTAATCCGTATTTGGG (site TCCACCGCTCC)” the figure was 0.00928; with “TCCACCGCATGGACCGGTTTTCCCGGTAATCCGTATTTGGG (site TCCACCGCTCG)”, 0.0231; with “TCCACCGCATGGACCGGTTTTCCCGGTAATCCGTATTTGGG (site TCCACCGCTCT)”, 0.0189.
Regarding “TCCATCGCATGGACCGGTTTTCCCGGTAATCCGTATTTGCG (site TCCAACGCTCG)”, the “recombinant UMI read abundance (log10)” value turned out to be 0.
“TCCATCGCATGGACCGGTTTTCCCGGTAATCCGTATTTGCG (site TCCACCGCTCG)”: the “recombinant UMI read abundance (log10)” value amounted to 0.0339.
As for “TCCATCGCATGGACCGGTTTTCCCGGTAATCCGTATTTGCG (site TCCAGCGCTCG)”, the “recombinant UMI read abundance (log10)” value is 0.047.
As to “TCCATCGCATGGACCGGTTTTCCCGGTAATCCGTATTTGCG (site TCCATCGCTCG)”, the “recombinant UMI read abundance (log10)” value was 0.00801.
Consider “TCCCAATCATGGACCGGTTTTCCCGGTAATCCGTATTTGTT (site TCCCAATCTAA)”, for which the “recombinant UMI read abundance (log10)” value was 0.00639.
